Experimental data from patent US9650379B2 (CHONG KUN DANG PHARMACEUTICAL CORP., priority 2013, dated 2017).

Experiments:
[1] = biological target: T1, HDAC1 (Homo sapiens, UniProt Q13547); experiment: Inhibition of HDAC1 activity (HDAC1 fluorimetric drug discovery assay kit); type: biochemical; settings: test concentrations 100, 1000 and 10000 nM; 37° C., 60 minutes
T1 construct: purchased Enzolifesciences BML-AK511
In short: (§1)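 HDAC1 tested with the kit assay mixture at 100, 1000 and 10000 nM compound; recombinant human HDAC6 at 0.1, 1, 10, 100 and 1000 nM. Reaction ran 60 min at 37° C, then developer was added for 30 min at 37° C and fluorescence quantified.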

[2] = biological target: T2, HDAC6 human recombinant (Homo sapiens, UniProt Q9UBN7); experiment: Inhibition of HDAC6 activity (fluorimetric assay); type: biochemical; settings: test concentrations 0.1, 1, 10, 100 and 1000 nM; 37° C., 60 minutes
T2 construct: purchased Calbiochem 382180
T2 sequence (Q9UBN7 1-1215): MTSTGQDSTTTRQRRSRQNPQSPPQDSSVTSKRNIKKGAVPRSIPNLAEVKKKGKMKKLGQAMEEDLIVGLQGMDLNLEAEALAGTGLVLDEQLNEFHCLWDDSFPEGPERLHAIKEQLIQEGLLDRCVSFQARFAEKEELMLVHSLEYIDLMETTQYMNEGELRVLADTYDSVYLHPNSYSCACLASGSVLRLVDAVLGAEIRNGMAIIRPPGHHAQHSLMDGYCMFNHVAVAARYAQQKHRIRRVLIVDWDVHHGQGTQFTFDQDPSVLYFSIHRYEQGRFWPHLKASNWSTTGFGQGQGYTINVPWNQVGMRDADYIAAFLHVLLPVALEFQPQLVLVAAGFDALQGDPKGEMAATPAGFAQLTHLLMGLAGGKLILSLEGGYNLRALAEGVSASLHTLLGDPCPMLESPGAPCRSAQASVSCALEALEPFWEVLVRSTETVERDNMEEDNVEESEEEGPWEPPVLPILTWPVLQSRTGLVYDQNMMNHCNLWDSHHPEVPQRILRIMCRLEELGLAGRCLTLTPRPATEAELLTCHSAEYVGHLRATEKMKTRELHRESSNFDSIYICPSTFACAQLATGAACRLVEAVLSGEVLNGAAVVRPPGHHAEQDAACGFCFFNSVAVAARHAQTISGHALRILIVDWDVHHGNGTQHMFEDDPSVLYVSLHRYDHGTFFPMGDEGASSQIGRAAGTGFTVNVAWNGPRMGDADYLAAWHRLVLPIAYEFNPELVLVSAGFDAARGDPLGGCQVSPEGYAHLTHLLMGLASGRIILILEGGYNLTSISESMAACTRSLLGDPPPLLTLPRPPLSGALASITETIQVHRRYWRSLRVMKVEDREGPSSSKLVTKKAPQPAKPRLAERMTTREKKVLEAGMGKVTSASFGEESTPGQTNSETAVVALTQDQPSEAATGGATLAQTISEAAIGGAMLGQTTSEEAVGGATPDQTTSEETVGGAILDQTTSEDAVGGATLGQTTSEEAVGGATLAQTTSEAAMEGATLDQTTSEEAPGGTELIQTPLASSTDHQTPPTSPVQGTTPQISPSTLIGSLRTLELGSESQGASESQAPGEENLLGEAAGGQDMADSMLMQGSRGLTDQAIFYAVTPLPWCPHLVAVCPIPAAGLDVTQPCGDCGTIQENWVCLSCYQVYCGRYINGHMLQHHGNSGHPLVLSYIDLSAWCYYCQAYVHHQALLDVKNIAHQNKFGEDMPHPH
In short: as §1

T1 sequence (Q13547 whole entry): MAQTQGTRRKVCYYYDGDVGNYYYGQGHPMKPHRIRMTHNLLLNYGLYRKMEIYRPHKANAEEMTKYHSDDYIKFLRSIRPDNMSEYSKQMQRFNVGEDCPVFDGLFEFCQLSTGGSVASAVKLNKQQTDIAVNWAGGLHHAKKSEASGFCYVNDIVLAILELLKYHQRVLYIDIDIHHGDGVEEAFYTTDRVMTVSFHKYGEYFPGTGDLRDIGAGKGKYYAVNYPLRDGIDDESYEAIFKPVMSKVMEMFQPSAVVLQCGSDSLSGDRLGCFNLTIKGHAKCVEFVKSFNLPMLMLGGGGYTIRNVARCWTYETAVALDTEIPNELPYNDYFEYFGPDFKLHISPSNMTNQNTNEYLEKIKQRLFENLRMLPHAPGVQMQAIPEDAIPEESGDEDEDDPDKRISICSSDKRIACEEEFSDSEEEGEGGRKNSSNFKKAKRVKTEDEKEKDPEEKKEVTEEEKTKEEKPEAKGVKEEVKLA

SMILES | IC50 [1] [nM] | IC50 [2] [nM]
CN1CC=C(c2cnc3c(ccn3Cc3ccc(C(=O)NO)cc3)c2)CC1 [Compound 647, N-hydroxy-4-((5-(1-methyl-1,2,3,6-tetrahydropyridin-4-yl)-1H-pyrrolo[2,3-b]pyridin-1-yl)methyl)benzamide] | 1170 | 15
O=C(NO)c1ccc(Cn2ccc3cc(C4CCOCC4)cnc32)cc1 [Compound 635, N-hydroxy-4-((5-(tetrahydro-2H-pyran-4-yl)-1H-pyrrolo[2,3-b]pyridin-1-yl)methyl)benzamide] | 1170 | 11
O=C(NO)c1ccc(Cn2ccc3cc(C4CCN(Cc5ccc(-c6ccco6)cc5)CC4)cnc32)cc1 [Compound 875, 4-((5-(1-(4-(furan-2-yl)benzyl)piperidin-4-yl)-1H-pyrrolo[2,3-b]pyridin-1-yl)methyl)-N-hydroxybenzamide] | 2320 | 32.4
Nc1cccc(-c2cnc3c(ccn3Cc3ccc(C(=O)NO)cc3)c2)c1 [Compound 690, 4-((5-(3-aminophenyl)-1H-pyrrolo[2,3-b]pyridin-1-yl)methyl)-N-hydroxybenzamide] | 2310 | 12
CC(C)(C)OC(=O)N1CC=C(c2ccc3c(ccn3Cc3ccc(C(=O)NO)cc3)n2)CC1 [Compound 758, tert-butyl 4-(1-(4-(hydroxycarbamoyl)benzyl)-1H-pyrrolo[3,2-b]pyridin-5-yl)-5,6-dihydropyridine-1(2H)-carboxylate] | 1630 | 8
O=C(NO)c1ccc(Cn2ccc3cc(C4=CCOCC4)cnc32)cc1 [Compound 629, 4-((5-(3,6-dihydro-2H-pyran-4-yl)-1H-pyrrolo[2,3-b]pyridin-1-yl)methyl)-N-hydroxybenzamide] | 1050 | 4
O=C(NO)c1ccc(Cn2ccc3cc(C4=CCN(CC5CCCCC5)CC4)cnc32)cc1 [Compound 721, 4-((5-(1-(cyclohexylmethyl)-1,2,3,6-tetrahydropyridin-4-yl)-1H-pyrrolo[2,3-b]pyridin-1-yl)methyl)-N-hydroxybenzamide] | 1320 | 19
CC(C)(C)CCN1CCC(c2cnc3c(ccn3Cc3ccc(C(=O)NO)cc3)c2)CC1 [Compound 864, 4-((5-(1-(3,3-dimethylbutyl)piperidin-4-yl)-1H-pyrrolo[2,3-b]pyridin-1-yl)methyl)-N-hydroxybenzamide] | 1740 | 18
O=C(NO)c1ccc(Cn2ccc3cc(N4CCN(Cc5cccc(F)c5)CC4)cnc32)cc1 [Compound 851, 4-((5-(4-(3-fluorobenzyl)piperazin-1-yl)-1H-pyrrolo[2,3-b]pyridin-1-yl)methyl)-N-hydroxybenzamide] | 1930 | 12.7
O=C(NO)c1ccc(Cn2ccc3c(-c4ccccc4)ccnc32)cc1 [Compound 656, N-hydroxy-4-((4-phenyl-1H-pyrrolo[2,3-b]pyridin-1-yl)methyl)benzamide] | 1350 | 16
O=C(NO)c1ccc(Cn2ccc3cc(C4CCN(Cc5cccc(F)c5)CC4)cnc32)cc1 [Compound 781, 4-((5-(1-(3-fluorobenzyl)piperidin-4-yl)-1H-pyrrolo[2,3-b]pyridin-1-yl)methyl)-N-hydroxybenzamide] | 2440 | 18
CC(C)(O)CN1CCC(c2ccc3ccn(Cc4ccc(C(=O)NO)cc4)c3n2)CC1 [Compound 991, N-hydroxy-4-((6-(1-(2-hydroxy-2-methylpropyl)piperidin-4-yl)-1H-pyrrolo[2,3-b]pyridin-1-yl)methyl)benzamide] | 880 | 32
COc1ccc(CN2CCC(c3ccnc4c3ccn4Cc3ccc(C(=O)NO)cc3)CC2)cc1 [Compound 959, N-hydroxy-4-((4-(1-(4-methoxybenzyl)piperidin-4-yl)-1H-pyrrolo[2,3-b]pyridin-1-yl)methyl)benzamide] | 900 | 12
O=C(NO)c1ccc(Cn2ccc3c(N4CCN(c5ccc(C(F)(F)F)cn5)CC4)ccnc32)cc1 [Compound 700, N-hydroxy-4-((4-(4-(5-(trifluoromethyl)pyridin-2-yl)piperazin-1-yl)-1H-pyrrolo[2,3-b]pyridin-1-yl)methyl)benzamide] | 4240 | 41

Stronger by IC50 [1], values ahead:

IC50 [1] [nM] | IC50 [2] [nM] | SMILES
570 | 3.8 | CN1CCN(Cc2cccc(-c3ccnc4c3ccn4Cc3ccc(C(=O)NO)cc3)c2)CC1 [Compound 799, N-hydroxy-4-((4-(3-((4-methylpiperazin-1-yl)methyl)phenyl)-1H-pyrrolo[2,3-b]pyridin-1-yl)methyl)benzamide]
290 | 11.7 | O=C(NO)c1ccc(Cn2ccc3c(N4CCN(Cc5cccnc5)CC4)ccnc32)cc1 [Compound 849, N-hydroxy-4-((4-(4-(pyridin-3-ylmethyl)piperazin-1-yl)-1H-pyrrolo[2,3-b]pyridin-1-yl)methyl)benzamide]
850 | 9.1 | O=C(NO)c1ccc(Cn2ccc3c(N4CCN(Cc5cccc(F)c5)CC4)ccnc32)cc1 [Compound 848, 4-((4-(4-(3-fluorobenzyl)piperazin-1-yl)-1H-pyrrolo[2,3-b]pyridin-1-yl)methyl)-N-hydroxybenzamide]
750 | 5.5 | C[C@@H]1CN(c2cnc3c(ccn3Cc3ccc(C(=O)NO)cc3)c2)C[C@H](C)N1Cc1ncccn1 [Compound 1005, 4-((5-((3S,5R)-3,5-dimethyl-4-(pyrimidin-2-ylmethyl)-1-yl)-1H-pyrrolo[2,3-b]pyridin-1-yl)methyl)-N-hydroxybenzamide]
420 | 1.4 | CC(C)(C(=O)O)N1CCC(c2ccnc3c2ccn3Cc2ccc(C(=O)NO)cc2)CC1 [Compound 1028, 2-(4-(1-(4-(hydroxycarbamoyl)benzyl)-1H-pyrrolo[2,3-b]pyridin-4-yl)piperidin-1-yl)-2-methylpropionic acid]
680 | 12 | C[C@@H]1CN(c2cnc3c(ccn3Cc3ccc(C(=O)NO)cc3)c2)C[C@H](C)N1CC(C)(C)O [Compound 865, N-hydroxy-4-((5-((3S,5R)-4-(2-hydroxy-2-methylpropyl)-3,5-dimethylpiperazin-1-yl)-1H-pyrrolo[2,3-b]pyridin-1-yl)methyl)benzamide]
180 | 2 | CN1CCN(c2ccnc3c2ccn3Cc2ccc(C(=O)NO)cc2)CC1 [Compound 224, N-hydroxy-4-((4-(4-methylpiperazin-1-yl)-1H-pyrrolo[2,3-b]pyridin-1-yl)methyl)benzamide]
830 | 3.7 | CC(C)(O)CN1CC2(CCN(c3cnc4c(ccn4Cc4ccc(C(=O)NO)cc4)c3)CC2)C1 [Compound 956, N-hydroxy-4-((5-(2-(2-hydroxy-2-methylpropyl)-2,7-diazaspiro[3.5]nanan-7-yl)-1H-pyrrolo[2,3-b]pyridin-1-yl)methyl)benzamide]
330 | 20.6 | O=C(NO)c1ccc(Cn2ccc3c(C4CCN(Cc5cccc(F)c5)CC4)ccnc32)cc1 [Compound 870, 4-((4-(1-(3-fluorobenzyl)piperidin-4-yl)-1H-pyrrolo[2,3-b]pyridin-1-yl)methyl)-N-hydroxybenzamide]
770 | 6 | O=C(NO)c1ccc(Cn2ccc3cc(C4CCN(Cc5cncnc5)CC4)cnc32)cc1 [Compound 880, N-hydroxy-4-((5-(1-(pyrimidin-5-ylmethyl)piperidin-4-yl)-1H-pyrrolo[2,3-b]pyridin-1-yl)methyl)benzamide]
610 | 4.1 | O=C(NO)c1ccc(Cn2ccc3cc(C4CCN(Cc5cccnc5)CC4)cnc32)cc1 [Compound 840, N-hydroxy-4-((5-(1-(pyridin-3-ylmethyl)piperidin-4-yl)-1H-pyrrolo[2,3-b]pyridin-1-yl)methyl)benzamide]
540 | 6.9 | O=C(NO)c1ccc(Cn2ccc3cc(C4CCN(Cc5ccncc5)CC4)cnc32)cc1 [Compound 841, N-hydroxy-4-((5-(1-(pyridin-4-ylmethyl)piperidin-4-yl)-1H-pyrrolo[2,3-b]pyridin-1-yl)methyl)benzamide]
